Data: ChEMBL document CHEMBL3085720, “Divergent structure-activity relationships of structurally similar acetylcholinesterase inhibitors” (J Med Chem, 2013)

How the values were obtained:
Acetylcholinesterase [1] = biological target: T1, Acetylcholinesterase (Mus musculus, UniProt P21836); assay: Inhibition of mouse recombinant AChE using acetylthiocholine iodide as substrate by Ellman's method
T1 sequence (P21836 whole entry): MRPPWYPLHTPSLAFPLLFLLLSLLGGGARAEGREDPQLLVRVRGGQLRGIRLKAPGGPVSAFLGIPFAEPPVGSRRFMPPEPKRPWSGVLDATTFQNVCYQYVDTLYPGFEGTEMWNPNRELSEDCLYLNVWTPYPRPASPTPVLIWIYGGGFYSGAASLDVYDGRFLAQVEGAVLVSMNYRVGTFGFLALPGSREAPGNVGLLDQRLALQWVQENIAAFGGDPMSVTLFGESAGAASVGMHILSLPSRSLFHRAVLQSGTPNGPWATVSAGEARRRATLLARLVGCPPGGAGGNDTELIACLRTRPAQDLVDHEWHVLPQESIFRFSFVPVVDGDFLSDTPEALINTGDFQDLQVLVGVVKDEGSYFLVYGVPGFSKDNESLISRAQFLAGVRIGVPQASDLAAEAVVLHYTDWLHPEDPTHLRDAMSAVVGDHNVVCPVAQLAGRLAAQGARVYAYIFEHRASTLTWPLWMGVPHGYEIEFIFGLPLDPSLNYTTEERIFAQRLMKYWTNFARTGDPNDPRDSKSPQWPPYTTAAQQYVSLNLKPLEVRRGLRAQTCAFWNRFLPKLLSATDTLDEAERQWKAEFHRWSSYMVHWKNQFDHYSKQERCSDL

Acetylcholinesterase [2] = biological target: T1, Acetylcholinesterase; assay: Binding affinity to mouse AChE by isothermal titration calorimetry
Acetylcholinesterase [3] = biological target: T1, Acetylcholinesterase
Acetylcholinesterase [4] = biological target: T1, Acetylcholinesterase; assay: Inhibition of wild type mouse AChE expressed in HEK293 cells using ATCh as substrate; type: cell-based

| SMILES | IC50 (Acetylcholinesterase [1]) [µM] | also measured |
| --- | --- | --- |
| CCN(CC)CCNS(=O)(=O)c1ccc(Cl)cc1 | 88 | – |
| CCN(CC)CCNS(=O)(=O)c1cccc(Cl)c1 | 18 | Kd (Acetylcholinesterase [2]): 44.4 µM |
| CCN(CC)CCNS(=O)(=O)c1ccc(OC)cc1 | 119 | – |
| CCN(CC)CCNS(=O)(=O)c1ccc(C)cc1 | 135 | – |
| CCN(CC)CCNS(=O)(=O)c1ccc(F)cc1 | 62 | – |
| CCN(CC)CCNS(=O)(=O)c1ccc([N+](=O)[O-])cc1 | 95 | – |
| CCN(CC)CCNS(=O)(=O)c1ccc(Cl)cc1F | 91 | – |
| CCN(CC)CCNS(=O)(=O)c1ccc(F)c(F)c1 | 50 | – |
| CCN(CC)CCNS(=O)(=O)c1cccc2ccccc12 | 44 | – |
| CCN(CC)CCNS(=O)(=O)c1ccc2ccccc2c1 | > 700 | – |
| CCN(CC)CCNS(=O)(=O)c1ccc(-c2ccc(Cl)cc2)cc1 | > 700 | – |
| CCN(CC)CCNS(=O)(=O)Cc1ccccc1 | 139 | – |
| CCN(CC)CCNS(=O)(=O)Cc1ccc(F)cc1 | 40 | – |
| CCN(CC)CCNS(=O)(=O)Cc1ccc(Cl)cc1 | 12 | Kd (Acetylcholinesterase [2]): 11.1 µM |
| CCN(CC)CCNS(=O)(=O)Cc1ccc(C(F)(F)F)cc1 | 12 | Kd (Acetylcholinesterase [2]): 9.2 µM |
| CCN(CC)CCNS(=O)(=O)Cc1ccc(Br)cc1 | 10 | – |
| CCN(CC)CCNS(=O)(=O)Cc1ccc(Cl)c(Cl)c1 | 7 | – |
| CCN(CC)CCNS(=O)(=O)c1ccccc1 | 31 | – |
| CCN(CC)CCNS(=O)(=O)c1ccccc1F | 41 | – |
| CCN(CC)CCNS(=O)(=O)c1cccc(OC)c1 | 7 | – |
| CCN(CC)CCNS(=O)(=O)c1cccc(C(F)(F)F)c1 | 22 | Kd (Acetylcholinesterase [2]): 14.8 µM |
| C/C=C1\[C@H]2C=C(C)C[C@]1(N)c1ccc(=O)[nH]c1C2 [HUPERZINE A] | – | IC50 (Acetylcholinesterase [3]): 0.082 µM |
| CC[N+](C)(CC)CCC[n+]1c(-c2ccccc2)c2cc(N)ccc2c2ccc(N)cc21 [PROPIDIUM] | – | IC50 (Acetylcholinesterase [4]): 1.1 µM |
